According to patent US11161855B2, “Tricyclic fused thiophene derivatives as JAK inhibitors” (Incyte Corporation, priority 2012, dated 2021):

system: human JAK1 (a.a. 837-1142); assay: In vitro JAK kinase assay (HTRF), JAK1; format: biochemical; conditions: ratio of IC50s, 1 mM ATP
Protocol: Compounds herein were tested for inhibitory activity of JAK targets according to the following in vitro assay described in Park et al., Analytical Biochemistry 1999, 269, 94-104. The catalytic domains of human JAK1 (a.a. 837-1142), JAK2 (a.a. 828-1132) and JAK3 (a.a. 781-1124) were expressed using baculovirus in insect cells and purified. The catalytic activity of JAK1, JAK2 or JAK3 was assayed by measuring the phosphorylation of a biotinylated peptide. The phosphorylated peptide was detected by homogenous time resolved fluorescence (HTRF). IC50s of compounds were measured for each kinase in the 40 μL reactions that contain the enzyme, ATP and 500 nM peptide in 50 mM Tris (pH 7.8) buffer with 100 mM NaCl, 5 mM DTT, and 0.1 mg/mL (0.01%) BSA. For the 1 mM IC50 measurements, ATP concentration in the reactions was 1 mM. Reactions were carried out at room temperature for 1 hour and then stopped with 20 μL 45 mM EDTA, 300 nM SA-APC, 6 nM Eu-Py20 in assay buffer (Perkin Elmer, Boston, Mass.). Binding to the Europium labeled antibody took place for 40 minutes and HTRF signal was measured on a PHERA star plate reader (BMG, Cary, N.C.). The Example compounds were each tested in the Example A assay (see Table 1 for data for the compounds of the examples as tested by the assay of Example A at 1 mM ATP).

| SMILES | JAK2/JAK1 |
| --- | --- |
| C[C@@H](O)c1nc2cnc3ccsc3c2n1C1CCC(O)(CC#N)CC1 (single isomer, unassigned) [24 (first peak)] | >10 |
| C[C@@H](O)c1nc2cnc3ccsc3c2n1C1CCC(O)(CC#N)CC1 (single isomer, unassigned) [24 (second peak)] | >10 |
| C[C@@H](O)c1nc2cnc3ccsc3c2n1C1CCC(NCCC#N)CC1 (single isomer, unassigned) [30 (first peak)] | >2 |
| C[C@@H](O)c1nc2cnc3ccsc3c2n1C1CCC(NCCC#N)CC1 (single isomer, unassigned) [30 (second peak)] | >10 |
| Cc1nc2cnc3ccsc3c2n1[C@H]1CC[C@H](CC#N)[C@@H](O)C1 (single isomer, unassigned) [41 (first peak)] | >10 |
| N#CCC1CCC(CO)(n2cnc3cnc4ccsc4c32)CC1 (single isomer, unassigned) [72 (second peak), [4-(Hydroxymethyl)-4-(1H-imidazo[4,5-d]thieno[3,2-b]pyridin-1-yl)cyclohexyl]acetonitrile] | >5 |
| C[C@@H](O)c1nc2cnc3ccsc3c2n1C1CCNCC1F (stereo partly drawn) [9 (2nd peak), (1R)-1-[1-(3-Fluoropiperidin-4-yl)-1H-imidazo[4,5-d]thieno[3,2-b]pyridin-2-yl]ethanol] | >10 |
| C[C@@H](O)c1nc2cnc3ccsc3c2n1[C@H]1CCCOC1 [Example 1, (1R)-1-{1-[(3S)-Tetrahydro-2H-pyran-3-yl]-1H-imidazo[4,5-d]thieno[3,2-b]pyridin-2-yl}ethanol] | >3 |
| C[C@@H](O)c1nc2cnc3ccsc3c2n1[C@H]1CC[C@H](CC#N)CC1 [Example 2, (trans-4-{2-[(1R)-1-Hydroxyethyl]-1H-imidazo[4,5-d]thieno[3,2-b]pyridin-1-yl}cyclohexyl)acetonitrile] | >10 |
| C[C@@H](O)c1nc2cnc3ccsc3c2n1[C@H]1CC[C@H](O)CC1 [Example 3, trans-4-{2-[(1R)-1-Hydroxyethyl]-1Z-imidazo[4,5-d]thieno[3,2-b]pyridin-1-yl}cyclohexanol] | >10 |
| C[C@@H](O)c1nc2cnc3ccsc3c2n1[C@H]1CC[C@H](NCC(F)(F)F)CC1 [Example 4, (1R)-1-(1-{trans-4-[(2,2,2-Trifluoroethyl)amino]cyclohexyl}-1H-imidazo[4,5-d]thieno[3,2-b]pyridin-2-yl)ethanol] | >10 |
| C[C@@H](O)c1nc2cnc3ccsc3c2n1[C@H]1CC[C@H](CCS(C)(=O)=O)CC1 [Example 5, (1R)-1-(1-{trans-4-[2-(Methylsulfonyl)ethyl]cyclohexyl}-1H-imidazo[4,5-d]thieno[3,2-b]pyridin-2-yl)ethanol] | >10 |
| C[C@@H](O)c1nc2cnc3ccsc3c2n1[C@H]1CC[C@@H](n2cncn2)CC1 [Example 6, (1R)-1-{1-[cis-4-(1H-1,2,4-Triazol-1-yl)cyclohexyl]-1H-imidazo[4,5-d]thieno[3,2-b]pyridin-2-yl}ethanol] | >6 |
| C[C@@H](O)c1nc2cnc3ccsc3c2n1[C@H]1CC[C@@H](C#N)CC1 [Example 7, cis-4-{2-[(1R)-1-Hydroxyethyl]-1H-imidazo[4,5-d]thieno[3,2-b]pyridin-1-yl}cyclohexanecarbonitrile] | >10 |
| C[C@@H](O)c1nc2cnc3ccsc3c2n1[C@H]1CC[C@H](CCC#N)CC1 [Example 8, 3-(trans-4-{2-[(1R)-1-Hydroxyethyl]-1H-imidazo[4,5-d]thieno[3,2-b]pyridin-1-yl}cyclohexyl)propanenitrile] | >10 |
| C[C@@H](O)c1nc2cnc3ccsc3c2n1[C@H]1CC[C@H](CC#N)CC1.Cl [Example 10, (trans-4-{2-[(1R)-1-Hydroxyethyl]-1H-imidazo[4,5-d]thieno[3,2-b]pyridin-1-yl}cyclohexyl)acetonitrile HCl Salt] | >10 |
| C[C@@H](O)c1nc2cnc3ccsc3c2n1[C@H]1CC[C@H](CO)CC1 [Example 11, (1R)-1-{1-[trans-4-(Hydroxymethyl)cyclohexyl]-1H-imidazo[4,5-d]thieno[3,2-b]pyridin-2-yl}ethanol] | >10 |
| C[C@@H](O)c1nc2cnc3ccsc3c2n1[C@H]1CC[C@H](CF)CC1 [Example 12, (1R)-1-{1-[trans-4-(Fluoromethyl)cyclohexyl]-1H-imidazo[4,5-d]thieno[3,2-b]pyridin-2-yl}ethanol] | >10 |
| C[C@@H](O)c1nc2cnc3ccsc3c2n1C1CCCCC1 [Example 13, (1R)-1-(1-Cyclohexyl-1H-imidazo[4,5-d]thieno[3,2-b]pyridin-2-yl)ethanol] | >10 |
| CNS(=O)(=O)C[C@H]1CC[C@H](n2c([C@@H](C)O)nc3cnc4ccsc4c32)CC1 [Example 14, 1-(trans-4-{2-[(1R)-1-hydroxyethyl]-1H-imidazo[4,5-d]thieno[3,2-b]pyridin-1-yl}cyclohexyl)-N-methylmethanesulfonamide] | >5 |
| C[C@@H](O)c1nc2cnc3ccsc3c2n1C1CCN(CC(F)(F)F)CC1 [Example 15, (1R)-1-{1-[1-(2,2,2-Trifluoroethyl)piperidin-4-yl]-1H-imidazo[4,5-d]thieno[3,2-b]pyridin-2-yl}ethanol] | >9 |
| C[C@@H](O)c1nc2cnc3ccsc3c2n1C1CCN(CCC#N)CC1 [Example 16, 3-(4-{2-[(1R)-1-Hydroxyethyl]-1H-imidazo[4,5-d]thieno[3,2-b]pyridin-1-yl}piperidin-1-yl)propanenitrile] | >10 |
| N#CC[C@H]1CC[C@H](n2c(CO)nc3cnc4ccsc4c32)CC1 [Example 17, {trans-4-[2-(Hydroxymethyl)-1H-imidazo[4,5-d]thieno[3,2-b]pyridin-1-yl]cyclohexyl}acetonitrile] | >10 |
| CS(=O)(=O)NCc1nc2cnc3ccsc3c2n1[C@H]1CC[C@H](CC#N)CC1 [Example 18, N-({1-[trans-4-(Cyanomethyl)cyclohexyl]-1H-imidazo[4,5-d]thieno[3,2-b]pyridin-2-yl}methyl)methanesulfonamide] | >10 |
| C[C@@H](O)c1nc2cnc3ccsc3c2n1[C@H]1CCC(CO)OC1 (stereo partly drawn) [Example 19, (1R)-1-{1-[(3S)-6-(Hydroxymethyl)tetrahydro-2H-pyran-3-yl]-1H-imidazo[4,5-d]thieno[3,2-b]pyridin-2-yl}ethanol] | >10 |
| C[C@@H](O)c1nc2cnc3ccsc3c2n1[C@H]1CC[C@H](CC#N)OC1 [Example 20, ((2R,5S)-5-{2-[(1R)-1-Hydroxyethyl]-1H-imidazo[4,5-d]thieno[3,2-b]pyridin-1-yl}tetrahydro-2H-pyran-2-yl)acetonitrile] | >10 |
| C[C@@H](O)c1nc2cnc3ccsc3c2n1[C@H]1CC[C@@H](CC#N)OC1 [Example 21, ((2S,5S)-5-{2-[(1R)-1-Hydroxyethyl]-1H-imidazo[4,5-d]thieno[3,2-b]pyridin-1-yl}tetrahydro-2H-pyran-2-yl)acetonitrile] | >10 |
| CS(=O)(=O)NCc1nc2cnc3ccsc3c2n1[C@H]1CC2CCC1C2 (stereo partly drawn) [Example 22, N-((1-((2S)-Bicyclo[2.2.1]heptan-2-yl)-1H-imidazo[4,5-d]thieno[3,2-b]pyridin-2-yl)methyl)methanesulfonamide] | >4 |
